Patent US20080027095A1, “Use Of 3-Substituted-2-(Diphenylmethy)-1-Azabicyclo[2.2.2]Octanes For Treating Mrg-X1 Receptor Mediated Diseases” (priority 2005, published 2008)
Where no end group is shown, it is not given here.

Tests used:
[1] = system: U2OS-hMRGX1-βarrGFP cells; assay: Toxicity algorithm (Icyt) on the InCell imaging assay; type: cell-based; details: even at 100 μM
Experimental: U2OS-hMRGX1-βarrGFP stable cells were cultured in MEM supplemented with 10% heat-inactivated FBS, 4 mM L-Glutamine, 10 μg/ml Gentamicin, 10 mM HEPES, 0.4 mg/ml G-418, and 0.4 mg/ml Zeocin. Cells were plated on black/clear plastic bottom 384-well Corning plates at a density of 3000 cells/well in 20 μl growth medium and cultured overnight. DMSO, or sample compounds titrated in 75% DMSO were transferred from the compound source plate into the assay plate (200 nl/well). After 15 minutes incubation at 37° C. and 5% CO2, 5 μl of agonist (varying concentrations of BAM15 or EC80 concentration of 60 μM for compound titrations) was added and cells were incubated at 37° C. for 30 minutes. The fixing/nuclear staining solution was prepared in PBS as a 2× stock containing 4% paraformaldehyde and 2 μM DRAQ5 and 25 μl of this solution was added to the cells and incubated at room temperature in the dark for 30 minutes. […]
All experiments with dose-response relationships were analyzed by a nonlinear regression software package from Graphpad (San Diego, Calif.). […] Confocal images from the IcCell 3000 were analyzed by the Raven software. Images of 200-300 cells from each well were captured and analyzed with GRN1 (granularity) algorithm using the Raven software of IN Cell Analyzer 3000. […] Icyt value was used to measure the average intensity of the green fluorescence inside the bounding box as described above. […]

hMRG-X1 receptor [2] = biological target: T1, hMRG-X1 receptor (Homo sapiens, UniProt Q96LB2); assay: Beta-lactamase (BLA) reporter-gene assay in CHO-hMRG-X1-NFAT/BLA cells; type: cell-based; details: for IC50: antagonism of BAM15-induced BLA response
T1 sequence (Q96LB2 whole entry): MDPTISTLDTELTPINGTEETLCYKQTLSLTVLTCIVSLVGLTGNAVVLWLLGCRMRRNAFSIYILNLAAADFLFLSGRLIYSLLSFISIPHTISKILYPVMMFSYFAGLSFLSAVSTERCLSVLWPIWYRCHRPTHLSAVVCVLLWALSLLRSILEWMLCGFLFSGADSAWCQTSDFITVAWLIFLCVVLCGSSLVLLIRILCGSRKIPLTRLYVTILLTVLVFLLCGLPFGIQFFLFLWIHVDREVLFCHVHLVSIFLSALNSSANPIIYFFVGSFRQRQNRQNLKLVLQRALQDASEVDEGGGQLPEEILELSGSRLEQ
Experimental: BLA assays in 384-well plates were performed essentially as described previously (11). For miniaturization of the BLA assay into 3456-well format, cells were serum-starved for ˜18 hours in assay medium (11) the day before the assay. On the day of the assay, cells were dissociated with enzyme-free dissociation buffer, re-suspended into assay medium and dispensed into a 3456-well nanoplate (3000 cells in 1.4 μl/well) using the FRD (Aurora Discovery, San Diego, Calif.) (13). Rest of the BLA assay was conducted essentially as described earlier (13). The cellular response was also observed by fluorescence microscopy with UV illumination. The data are plotted as a ratio of the emissions 460 nm/530 nm. Experimental data points are represented as median±standard deviation of 4-115 replicates.

hMRG-X1 receptor [3] = biological target: T1, hMRG-X1 receptor; assay: Receptor trafficking/internalization assay (InCell, Transfluor) in U2OS-hMRGX1-βarrGFP cells; type: cell-based; details: for IC50: 60 μM BAM15 (EC80), receptor trafficking
Experimental: U2OS-hMRGX1-βarrGFP stable cells were cultured in MEM supplemented with 10% heat-inactivated FBS, 4 mM L-Glutamine, 10 μg/ml Gentamicin, 10 mM HEPES, 0.4 mg/ml G-418, and 0.4 mg/ml Zeocin. Cells were plated on black/clear plastic bottom 384-well Corning plates at a density of 3000 cells/well in 20 μl growth medium and cultured overnight. DMSO, or sample compounds titrated in 75% DMSO were transferred from the compound source plate into the assay plate (200 nl/well). After 15 minutes incubation at 37° C. and 5% CO2, 5 μl of agonist (varying concentrations of BAM15 or EC80 concentration of 60 μM for compound titrations) was added and cells were incubated at 37° C. for 30 minutes. The fixing/nuclear staining solution was prepared in PBS as a 2× stock containing 4% paraformaldehyde and 2 μM DRAQ5 and 25 μl of this solution was added to the cells and incubated at room temperature in the dark for 30 minutes. The solution was then aspirated and replaced with PBS before confocal microscopy. Confocal microscopy was performed on the IN Cell Analyzer 3000 (GE Healthcare, Piscataway, N.J.).
All experiments with dose-response relationships were analyzed by a nonlinear regression software package from Graphpad (San Diego, Calif.). In the InCell 3000 imager, two excitation lines, 488 nm and 633 nm, were used to simultaneously excite βarrestin-GFP and the DRAQ5 nuclear stain, respectively. Confocal images from the IcCell 3000 were analyzed by the Raven software. Images of 200-300 cells from each well were captured and analyzed with GRN1 (granularity) algorithm using the Raven software of IN Cell Analyzer 3000. Individual cells or nuclei are first identified by thresholding the red channel (DRAQ5). From the nucleus, a rectangular bounding box was dilated out to the edge of the cell with a dilation setting of 15 pixels. […] This granularity algorithm was used to measure the number of fluorescent spots (Ngrains) based on fluorescent intensity and size of the grains and the average value from all the cells in a well were used to obtain the “Ngrain” value for the well. The same GRN1 algorithm was used to measure toxic affects or other false positives. Icyt value was used to measure the average intensity of the green fluorescence inside the bounding box as described above. Low Icyt values may indicate a sign of toxicity (resulting in either cell lyses or cells rounding up) displaying little or no GFP distribution in the cytoplasm and the plasma membrane, while high Icyt values may be due to the presence of fluorescent compound.

hMRG-X1 receptor [4] = biological target: T1, hMRG-X1 receptor; assay: Intracellular Ca2+ (FLIPR) assay in CHO-hMRG-X1-NFAT/Bla cells; type: cell-based; details: inhibition of BAM15-induced i[Ca2+] response
Experimental: Intracellular Ca^2+ measurements were performed essentially as described (14, 15). Modifications include 8000 cells/well of the CHO-hMRG-X1-NFAT/Bla cells in 20 μgrowth medium plated in 384-well plates 24 hours before assay. Cells were loaded with 20 μl of 2X calcium probe and fluorescent quencher. Agonist was prepared as a 4× stock in HBSS buffer and added to the assay plate by the FLIPR384 pipetter (13.3 μl/well). Experimental data points are represented as median±standard deviation of 4 replicates.

hMRG-X1 receptor [5] = biological target: T1, hMRG-X1 receptor; assay: Whole cell receptor binding assay with 3H-BAM in CHO-hMRG-X1-NFAT-BLA cells; details: 10 nM 3H-BAM, 4° C.
Experimental: CHO-hMRG-X1-NFAT-BLA cells were plated in a 24-well plate at 60,000 cells/well in 500 μl growth medium and incubated at 37° C. for 24 hours. The cells were washed once with 200 μl assay buffer (HANKS with 0.1% BSA and 20 mM HEPES, pH 7.5, refrigerated at 4° C.) using a vacuum aspirator. 90 μl assay buffer was added to each well followed by an addition of 0.2 μl/well diluted compounds (500X stock in DMSO) and incubated at 4° C. for 5 minutes. […] of ^3H-BAM peptide was added to each well (10 nM final concentration; ˜75,000 dpm) and the assay plate was incubated at 4° C. for 30 minutes with brief gentle shaking every 5 minutes. The assay plate was then washed rapidly with 2X 200 μl assay buffer (approximately 4 to 5 seconds for both washes). All wash steps were performed in a cold room (4° C.). To lyse the cells, 200 μl of 0.2 M NaOH was added to each well and incubate at room temperature for 30 minutes. The cell lysate in each well was transferred to a scintillation vial followed by addition of 3 ml scintillation solution (UltimaGold, PerkinElmer) and counted in a scintillation counter (1 minute per vial).

hMRG-X1 receptor [6] = biological target: T1, hMRG-X1 receptor; assay: as above; details: [3H]-BAM15

Molecule | IC50 (hMRG-X1 receptor [2]; IC50 BLA) [nM] | IC50 (hMRG-X1 receptor [3]; IC50 InCell) [nM] | IC50 (hMRG-X1 receptor [4]; IC50 FLIPR) [nM] | IC50 (hMRG-X1 receptor [2]; read-out: IC50 BLA) [nM] | IC50 (hMRG-X1 receptor [5]; read-out: IC50 Binding) [nM] | IC50 (hMRG-X1 receptor [3]; read-out: IC50 InCell) [nM] | IC50 (hMRG-X1 receptor [4]; read-out: IC50 FLIPR) [nM] | further results
COc1ccccc1C(=O)C=C1C2CCN(CC2)C1C(c1ccccc1)c1ccccc1 (centres unmarked) [Compound 1] | – | – | – | – | – | – | – | toxicity by toxicity algorithm on the InCell imaging assay [1]: minimal toxicity
COc1ccc(C(=O)OC2C3CCN(CC3)C2C(c2ccccc2)c2ccccc2)cc1OC (centres unmarked) [Compound 2] | 64 | 2800 | 157 | – | – | – | – | –
COc1ccccc1C(O)C=C1C2CCN(CC2)C1C(c1ccccc1)c1ccccc1 (centres unmarked) [Compound 3] | – | – | – | 80 | 182 | 550 | 187 | –
OC(C=C1C2CCN(CC2)C1C(c1ccccc1)c1ccccc1)c1cccc(C(F)(F)F)c1 (centres unmarked) [Compound 4] | – | – | – | 90 | – | 6780 | 209 | –
O=C(Nc1cccc2ccccc12)OC1C2CCN(CC2)C1C(c1ccccc1)c1ccccc1 (centres unmarked) [Compound 5] | 124 | 2200 | 904 | – | – | – | – | IC50 (hMRG-X1 receptor [5]; IC50 Binding): 1220 nM
O=C(Nc1ccccc1Cl)OC1C2CCN(CC2)C1C(c1ccccc1)c1ccccc1 (centres unmarked) [Compound 6] | 140 | 3600 | 751 | – | – | – | – | IC50 (hMRG-X1 receptor [5]; IC50 Binding): 607 nM
C(Cc1ccccc1)=C1C2CCN(CC2)C1C(c1ccccc1)c1ccccc1 (centres unmarked) [Compound 7] | – | – | – | 163 | 1430 | 2200 | 220 | –
OC(C=C1C2CCN(CC2)C1C(c1ccccc1)c1ccccc1)c1ccc(F)cc1 (centres unmarked) [Compound 8] | – | – | – | 165 | 630 | 4800 | 334 | –
Cc1cc(C)cc(C(O)C=C2C3CCN(CC3)C2C(c2ccccc2)c2ccccc2)c1 (centres unmarked) [Compound 9] | – | – | – | 200 | – | 5200 | 1500 | –
N#Cc1cccc(COC2C3CCN(CC3)C2C(c2ccccc2)c2ccccc2)c1 (centres unmarked) [Compound 10] | – | – | – | 209 | – | 10000 | 492 | –
FC(F)(F)c1ccccc1CNC1C2CCN(CC2)C1C(c1ccccc1)c1ccccc1 (centres unmarked) [Compound 11] | – | – | – | 244 | 1290 | 5200 | 460 | –
O=C(OC1C2CCN(CC2)C1C(c1ccccc1)c1ccccc1)c1ccccc1C(F)(F)F (centres unmarked) [Compound 12] | 252 | 8800 | 3300 | – | – | – | – | IC50 (hMRG-X1 receptor [5]; IC50 Binding): 2400 nM
O=C(Nc1cccc([N+](=O)[O-])c1)OC1C2CCN(CC2)C1C(c1ccccc1)c1ccccc1 (centres unmarked) [Compound 13] | 290 | 6300 | 1300 | – | – | – | – | IC50 (hMRG-X1 receptor [5]; IC50 Binding): 1850 nM
O=C(Nc1ccccc1Cl)OC1C2CCN(CC2)C1C(c1ccccc1)c1ccccc1 (centres unmarked) [Compound 14] | 375 | 29000 | 2700 | – | – | – | – | IC50 (hMRG-X1 receptor [5]; IC50 Binding): 1180 nM
COc1ccccc1NC(=S)NC1C2CCN(CC2)C1C(c1ccccc1)c1ccccc1 (centres unmarked) [Compound 15] | – | – | – | 418 | 2510 | 13500 | 9800 | –
N#Cc1ccc(COC2C3CCN(CC3)C2C(c2ccccc2)c2ccccc2)cc1 (centres unmarked) [Compound 16] | – | – | – | 556 | 1850 | – | – | –
VGRPEWWMDYQKRYG [BAM15, reference compound] | – | – | – | – | – | – | – | EC50 (hMRG-X1 receptor [2]; 1.8 μl assay in 3456-well plates, FIG. 3A, read-out: EC50, BLA assay miniaturized): 20 nM; EC50 (hMRG-X1 receptor [2]; 384-well, across 5 clones, FIG. 2B, read-out: EC50s for BAM15, BLA assay): 40 to 300 nM; Kd (hMRG-X1 receptor [6]): 80 nM; EC50 (hMRG-X1 receptor [3]; BAM15-induced, 30 minutes, FIG. 4, read-out: EC50 of pit phenotype (receptor internalization)): ~14000 nM
